From ChEMBL document CHEMBL4373717, “Coumarin-containing hybrids and their anticancer activities” (Eur J Med Chem, 2019)
In brackets after ≈: the same amount, converted by molar mass.

Legend:
T-24 = assay: Growth inhibition of human T24 cells; type: functional
HepG2 [1] = assay: Growth inhibition of human HepG2 cells; type: functional
WiDr = assay: Growth inhibition of human WiDr cells; type: functional
SNU1 = assay: Growth inhibition of human SNU1 cells; type: functional
SN12C = assay: Growth inhibition of human SN12C cells; type: functional
MCF7 [2] = assay: Growth inhibition of human MCF7 cells; type: functional
AGS = assay: Growth inhibition of human AGS cells; type: functional
SK-OV-3 = assay: Growth inhibition of human SKOV3 cells; type: functional
PANC-1 = assay: Growth inhibition of human PANC1 cells; type: functional
OVCAR-8 = assay: Growth inhibition of human OVCAR8 cells; type: functional
[3] = Growth inhibition of human KATO III cells; type: functional
BXPC-3 = assay: Growth inhibition of human BxPC3 cells; type: functional
MCF7 [4] = assay: Antiproliferative activity against human MCF7 cells after 72 hrs by ELISA; type: functional, cell-based; conditions: MCF7, 72 h
Caco-2 [5] = assay: Antiproliferative activity against human Caco2 cells after 72 hrs by ELISA; type: functional, cell-based; conditions: Caco-2, 72 h
HepG2 [6] = assay: Antiproliferative activity against human HepG2 cells after 72 hrs by ELISA; type: functional, cell-based; conditions: HepG2, 72 h
A549 [7] = assay: Cytotoxicity against human A549 cells assessed as reduction in cell viability after 68 hrs by MTT assay; type: functional, cell-based; conditions: A549, 68 h
K562 [8] = assay: Cytotoxicity against human K562 cells assessed as reduction in cell viability after 68 hrs by MTT assay; type: functional, cell-based; conditions: K562, 68 h
[9] = target: RAC-alpha serine/threonine-protein kinase (Homo sapiens, UniProt P31749); assay: Inhibition of AKT phosphorylation in human K562 cells; type: cell-based
Chain of RAC-alpha serine/threonine-protein kinase (P31749 whole entry): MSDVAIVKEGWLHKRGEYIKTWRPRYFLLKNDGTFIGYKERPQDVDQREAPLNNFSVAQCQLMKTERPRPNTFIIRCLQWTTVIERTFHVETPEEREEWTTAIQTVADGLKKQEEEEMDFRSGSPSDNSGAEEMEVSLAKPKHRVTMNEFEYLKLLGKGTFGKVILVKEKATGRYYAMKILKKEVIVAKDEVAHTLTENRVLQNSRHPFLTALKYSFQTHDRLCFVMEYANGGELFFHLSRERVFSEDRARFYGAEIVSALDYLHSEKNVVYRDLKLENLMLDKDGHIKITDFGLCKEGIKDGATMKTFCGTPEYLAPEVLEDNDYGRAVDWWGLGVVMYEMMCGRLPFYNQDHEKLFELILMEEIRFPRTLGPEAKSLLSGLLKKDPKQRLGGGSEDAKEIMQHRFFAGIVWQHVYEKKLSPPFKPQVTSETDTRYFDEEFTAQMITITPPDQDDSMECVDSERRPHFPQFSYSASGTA

HeLa [10] = assay: Cytotoxicity against human HeLa cells assessed as reduction in cell viability after 68 hrs by MTT assay; type: functional, cell-based
MCF7 [11] = assay: Cytotoxicity against human MCF7 cells assessed as reduction in cell viability after 68 hrs by MTT assay; type: functional, cell-based; conditions: MCF7, 68 h
MCF7 [12] = assay: Cytotoxicity against human MCF7 cells assessed as reduction in cell viability by MTT assay; type: functional, cell-based; conditions: Homo sapiens, MCF7
A549 [13] = assay: Cytotoxicity against human A549 cells assessed as reduction in cell viability by MTT assay; type: functional, cell-based
DU-145 = assay: Cytotoxicity against human DU145 cells assessed as reduction in cell viability after 24 hrs by MTT assay; type: functional, cell-based; conditions: DU-145, 24 h
BT-20 = assay: Cytotoxicity against human BT20 cells assessed as reduction in cell viability after 24 hrs by MTT assay; type: functional, cell-based; conditions: BT-20, 24 h
SK-MEL-28 = assay: Cytotoxicity against human SK-MEL-28 cells assessed as reduction in cell viability after 24 hrs by MTT assay; type: functional, cell-based; conditions: SK-MEL-28, 24 h
A549 [14] = assay: Cytotoxicity against human A549 cells assessed as reduction in cell viability after 24 hrs by MTT assay; type: functional, cell-based; conditions: A549, 24 h
Caco-2 [15] = assay: Cytotoxicity against human Caco2 cells assessed as reduction in cell viability after 72 hrs by MTT assay; type: functional, cell-based; conditions: Caco-2, 72 h
K562 [16] = assay: Cytotoxicity against human K562 cells assessed as reduction in cell viability after 72 hrs by MTT assay; type: functional, cell-based; conditions: K562, 72 h
HeLa [17] = assay: Cytotoxicity against human HeLa cells assessed as reduction in cell viability after 72 hrs by MTT assay; type: functional, cell-based
MDA-MB-231 = assay: Cytotoxicity against human MDA-MB-231 cells assessed as reduction in cell viability after 96 hrs by MTT assay; type: functional, cell-based; conditions: MDA-MB-231, 96 h
HT-29 = assay: Cytotoxicity against human HT-29 cells assessed as reduction in cell viability after 96 hrs by MTT assay; type: functional, cell-based; conditions: HT-29, 96 h
HCT-116 = assay: Cytotoxicity against human HCT116 cells assessed as reduction in cell viability after 96 hrs by MTT assay; type: functional, cell-based; conditions: HCT-116, 96 h
HeLa [18] = assay: Antiproliferative activity against human HeLa cells by MTT assay; type: functional, cell-based

Cc1cc2nc(-c3cc4ccccc4oc3=O)[nH]c2cc1C
GI50 (T-24): 0.07 to 3.57 µM | GI50 (HepG2 [1]): 0.07 to 3.57 µM | GI50 (WiDr): 0.07 to 3.57 µM | GI50 (SNU1): 0.07 to 3.57 µM | GI50 (SN12C): 0.07 to 3.57 µM | GI50 (MCF7 [2]): > 10 µM | GI50 (AGS): 0.07 to 3.57 µM | GI50 (SK-OV-3): 0.07 to 3.57 µM | GI50 (PANC-1): 0.07 to 3.57 µM | GI50 (OVCAR-8): 0.07 to 3.57 µM | GI50 [3]: 0.07 to 3.57 µM | GI50 (BXPC-3): 0.07 to 3.57 µM

Cc1ccc2[nH]c(-c3cc4ccccc4oc3=O)nc2c1
GI50 (T-24): 0.07 to 3.57 µM | GI50 (HepG2 [1]): 0.07 to 3.57 µM | GI50 (WiDr): 0.07 to 3.57 µM | GI50 (SNU1): 0.07 to 3.57 µM | GI50 (SN12C): 0.07 to 3.57 µM | GI50 (MCF7 [2]): > 10 µM | GI50 (AGS): 0.07 to 3.57 µM | GI50 (SK-OV-3): 0.07 to 3.57 µM | GI50 (PANC-1): 0.07 to 3.57 µM | GI50 (OVCAR-8): 0.07 to 3.57 µM | GI50 [3]: 0.07 to 3.57 µM | GI50 (BXPC-3): 0.07 to 3.57 µM

C/C(=N\Nc1ccccc1)c1ccc(NS(=O)(=O)c2ccc3oc(=O)ccc3c2)cc1
IC50 (MCF7 [4]): 5.03 to 175 µM | IC50 (Caco-2 [5]): 8.53 µM | IC50 (HepG2 [6]): 5.03 to 175 µM

Cc1c(Cc2ccc(NC(=O)Nc3ccc(F)c(F)c3)nc2)c(=O)oc2cc(O)c(C(C)(C)C)cc12
IC50 (A549 [7]): 1.66 to 7.86 µM | IC50 (K562 [8]): 1.66 to 7.86 µM | IC50 [9]: < 10 µM | IC50 (HeLa [10]): 1.66 to 7.86 µM | IC50 (MCF7 [11]): 1.66 to 7.86 µM

O=C(CNCc1cccnc1)Nc1cc2ccccc2oc1=O
IC50 (MCF7 [12]): 69.1 to 378 µM | IC50 (A549 [13]): 69.1 to 378 µM

C/C(=N\Nc1ccc([N+](=O)[O-])cc1[N+](=O)[O-])c1ccc(NS(=O)(=O)c2ccc3oc(=O)ccc3c2)cc1
IC50 (MCF7 [4]): 5.03 to 175 µM | IC50 (Caco-2 [5]): 5.03 to 175 µM | IC50 (HepG2 [6]): 5.03 to 175 µM

O=C(Cn1nc(Cc2ccccc2Br)[nH]c1=O)NNC(=O)c1cc2cc(Cl)cc(Cl)c2oc1=O
IC50 (DU-145): 3.1 to 37.9 mg/L (≈ 5.47 to 66.8 µM) | IC50 (BT-20): 3.1 to 37.9 mg/L (≈ 5.47 to 66.8 µM) | IC50 (SK-MEL-28): 3.1 to 37.9 mg/L (≈ 5.47 to 66.8 µM) | IC50 (A549 [14]): 3.1 to 37.9 mg/L (≈ 5.47 to 66.8 µM)

C/C(=N\NC1=NC(=O)CS1)c1ccc(NS(=O)(=O)c2ccc3oc(=O)ccc3c2)cc1
IC50 (MCF7 [4]): 5.03 to 175 µM | IC50 (Caco-2 [5]): 5.03 to 175 µM | IC50 (HepG2 [6]): 5.03 µM

C/C(=N\NC1=NC(=O)C(C)S1)c1ccc(NS(=O)(=O)c2ccc3oc(=O)ccc3c2)cc1 (stereo not drawn)
IC50 (MCF7 [4]): 5.03 to 175 µM | IC50 (Caco-2 [5]): 5.03 to 175 µM | IC50 (HepG2 [6]): 5.03 to 175 µM

COc1ccc(-c2cn(Cc3cc(=O)oc4cc(O)c(O)cc34)nn2)cc1
IC50 (Caco-2 [15]): 9.7 to 81.9 µM | IC50 (K562 [16]): 9.7 to 81.9 µM | IC50 (HeLa [17]): 9.7 to 81.9 µM

COc1cccc(-c2cn(Cc3cc(=O)oc4cc(O)c(O)cc34)nn2)c1
IC50 (Caco-2 [15]): 9.7 to 81.9 µM | IC50 (K562 [16]): 9.7 to 81.9 µM | IC50 (HeLa [17]): 9.7 to 81.9 µM

O=C(Cn1nc(Cc2ccc(Cl)cc2)[nH]c1=O)NNC(=O)c1cc2cc(Cl)cc(Cl)c2oc1=O
IC50 (DU-145): 3.1 to 37.9 mg/L (≈ 5.93 to 72.5 µM) | IC50 (BT-20): 3.1 to 37.9 mg/L (≈ 5.93 to 72.5 µM) | IC50 (SK-MEL-28): 3.1 to 37.9 mg/L (≈ 5.93 to 72.5 µM) | IC50 (A549 [14]): 3.1 to 37.9 mg/L (≈ 5.93 to 72.5 µM)

C/C(=N\Nc1nc(C)c(-c2ccccc2)s1)c1ccc(NS(=O)(=O)c2ccc3oc(=O)ccc3c2)cc1
IC50 (MCF7 [4]): 5.03 to 175 µM | IC50 (Caco-2 [5]): 5.03 to 175 µM | IC50 (HepG2 [6]): 3.48 µM

Cc1ccc(NC(=O)Nc2ccc(Cc3c(C)c4cc(C(C)(C)C)c(O)cc4oc3=O)cn2)cc1
IC50 (A549 [7]): 1.66 to 9.27 µM | IC50 (K562 [8]): 1.66 to 9.27 µM | IC50 [9]: < 10 µM | IC50 (HeLa [10]): 1.66 to 9.27 µM | IC50 (MCF7 [11]): 1.66 to 9.27 µM

O=C(Cn1nc(Cc2ccc(Cl)c(Cl)c2)[nH]c1=O)NNC(=O)c1cc2cc(Cl)ccc2oc1=O
IC50 (DU-145): 3.1 to 37.9 mg/L (≈ 5.93 to 72.5 µM) | IC50 (BT-20): 3.1 to 37.9 mg/L (≈ 5.93 to 72.5 µM) | IC50 (SK-MEL-28): 3.1 to 37.9 mg/L (≈ 5.93 to 72.5 µM) | IC50 (A549 [14]): 3.1 to 37.9 mg/L (≈ 5.93 to 72.5 µM)

Cc1ccc2c(Cn3cc(CO[C@H]4O[C@@H]5O[C@@]6(C)CC[C@H]7[C@H](C)CC[C@@H]([C@H]4C)[C@@]57OO6)nn3)cc(=O)oc2c1
IC50 (MDA-MB-231): 8.57 to 100 µM | IC50 (HT-29): 8.57 to 100 µM | IC50 (HCT-116): 8.57 to 100 µM

Cc1c(Cc2ccc(NC(=O)Nc3ccc(Br)cc3)nc2)c(=O)oc2cc(O)c(C(C)(C)C)cc12
IC50 (A549 [7]): 1.66 to 9.27 µM | IC50 (K562 [8]): 1.66 to 9.27 µM | IC50 [9]: < 10 µM | IC50 (HeLa [10]): 1.66 to 9.27 µM | IC50 (MCF7 [11]): 1.66 to 9.27 µM

COc1ccc2oc(=O)c(-c3nc4cc(OC)ccc4[nH]3)cc2c1
GI50 (T-24): 0.07 to 3.57 µM | GI50 (HepG2 [1]): 0.07 to 3.57 µM | GI50 (WiDr): 0.07 to 3.57 µM | GI50 (SNU1): 0.07 to 3.57 µM | GI50 (SN12C): 0.07 to 3.57 µM | GI50 (MCF7 [2]): > 10 µM | GI50 (AGS): 0.07 to 3.57 µM | GI50 (SK-OV-3): 0.07 to 3.57 µM | GI50 (PANC-1): 0.07 to 3.57 µM | GI50 (OVCAR-8): 0.07 to 3.57 µM | GI50 [3]: 0.07 to 3.57 µM | GI50 (BXPC-3): 0.07 to 3.57 µM

C/C(=N\Nc1c(Cl)cc(Cl)cc1Cl)c1ccc(NS(=O)(=O)c2ccc3oc(=O)ccc3c2)cc1
IC50 (MCF7 [4]): 5.03 to 175 µM | IC50 (Caco-2 [5]): 5.03 to 175 µM | IC50 (HepG2 [6]): 5.03 to 175 µM

CCOC(=O)c1sc(N/N=C(\C)c2cc3cc(Br)ccc3oc2=O)nc1C
IC50 (HeLa [18]): 0.0091 to 0.569 µM
